The values that follow come from patent US20240268385A1, “PEST CONTROL COMPOSITION” (DAIKIN INDUSTRIES, LTD., priority 2021, published 2024).

In assay [1] the test system is Bemisia tabaci (Adult Insect). In words: whole plant or invertebrate. As to conditions: in Brassica oleracea, 48 h. On the procedure: (§1) 9 parts by mass of a subagent of a formulation (xylene:DMF:Solpol 3005X (Toho Chemical Industry Co., Ltd.)=4:4:1) was mixed with 1 part by mass of dexmedetomidine (Wako) to prepare a 10% emulsion. A diluted solution of the 10% emulsion with a predetermined concentration was prepared by using a spreading agent, Grameen S (Toyo Green Co., Ltd.), diluted 10000-fold with water. Sample crops were individually sprayed with a sufficient amount of the diluted chemical solution by using a spray gun.
(§2) Test Method for Bemisia tabaci (Adult) and Frankliniella Occidentalis (First-Instar Larva)
(§3) After the sample crops were sprayed with the chemical solution, they were air-dried, and then the leaves were cut and stored in cups. While test insects were released, the number of insects released was counted, and the cups were covered with a lid. The mortality rate was calculated from the number of surviving insects after 2 days for Bemisia tabaci and after 5 days for Frankliniella occidentalis. Their corrected mortality rate was calculated from the following formula:
(§4) Corrected mortality rate (%)=[(survival rate of untreated group−survival rate of treated group)/survival rate of untreated group]×100

Assay [2] deals with Frankliniella occidentalis (First-instar Larva). In words: whole plant or invertebrate. As to conditions: in Brassica oleracea, 120 h. The procedure: as §1, §2, §3, §4
Assay [3] has as its system Nephotettix cincticeps (Three-instar Larva). In words: whole plant or invertebrate. As to conditions: in Oryza sativa, 144 h. On the procedure: as §1
(§5) Test Method for Nilaparvata lugens (Third-Instar Larva) and Nephotettix cincticeps (Third-Instar Larvae)
(§6) After the sample crops were sprayed with the chemical solution, they were air-dried, and 10 test insects were released. To prevent the escape of the test insects, plants were covered with cups and nylon gauze. The mortality rate was calculated from the number of surviving insects after 6 days, and the corrected mortality rate was calculated from the following formula:
as §4

Assay [4] concerns Nilaparvata lugens (Three-instar Larva). In words: whole plant or invertebrate. As to conditions: in Oryza sativa, 144 h. The procedure:
as §1, §5, §6, §4

The next assay has as its system blast disease pathogens. As to conditions: 500 ppm spray, rice seedlings at 2.5-leaf stage, 8 days in humid room. On the procedure:
as §1
Test Method for Blast Disease Pathogen
Seedlings at the 2.5-leaf stage were sprayed with the chemical solution, and placed in a humid room for 8 days with blast disease pathogens, followed by measuring the area of lesions. The preventive value was calculated from the ratio to the untreated group according to the following formula (N):
(§7) Preventive value=100−(damage in treated group/damage in untreated group)×100 (N)

Assay [5] concerns brown blotch disease pathogens. As to conditions: 500 ppm spray, cucumbers at 2-leaf stage, 8 days in humid room. The procedure:
as §1, §7
Test Method for Brown Blotch Disease Pathogen
Cucumbers at the 2-leaf stage were sprayed with the chemical solution and inoculated with a spray of a spore suspension of brown blotch disease pathogens, and then placed in a humid room for 8 days. The area of lesions on leaves was measured, and the preventive value was calculated according to formula (N).

A further assay relates to sheath blight fungi. As to conditions: 500 ppm spray, rice plants at 5-leaf stage, 6 days in humid room.
For assay [6], the system named is phytophthora disease pathogens. As to conditions: in vivo.
[7] abbreviates: read-out: Insect Mortality Rate.
Where [8] appears, read: read-out: Insect Mortality Rate (Corrected).

The structures appear in SMILES notation. Like-named read-outs stand apart in the source and are kept apart here.

What is called mortality is the percentage killed. Regarding `Cc1cccc([C@H](C)c2cnc[nH]2)c1C` [Chemical Agent, dexmedetomidine], the mortality at 100 ppm in assay [1] (setting [7]), in assay [1] (setting [8]), in assay [2] (setting [7]), in assay [2] (setting [8]), in assay [3] (setting [7]) and in assay [3] (setting [8]) was 100% throughout. Further, the mortality at 100 ppm in assay [4] (setting [7]) and in assay [4] (setting [8]) was 100% in each case. The mortality at 500 ppm in assay [1] (setting [7]), in assay [1] (setting [8]), in assay [2] (setting [7]), in assay [2] (setting [8]), in assay [3] (setting [7]) and in assay [3] (setting [8]) was 100% in each case. Also, the mortality at 500 ppm in assay [4] (setting [7]) and in assay [4] (setting [8]) was 100% throughout. Besides, the “Blast Disease Expansion Area Percentage” value in the assay on blast disease pathogens was 0%. Also, the “Blast Disease Preventive Value” in the assay on blast disease pathogens came to 100. Moreover, the “Brown Blotch Disease Expansion Area” value in assay [5] is 2%. In addition, the “Brown Blotch Disease Preventive Value” in assay [5] is listed as 86. The “Sheath Blight Disease Lesion Elongation” value in the assay with sheath blight fungi is reported as 3 mm. The “Sheath Blight Disease Preventive Value” with sheath blight fungi is on record as 98. Further, the “Phytophthora Expansion Area” value in assay [6] stood at 15%. Also, the “Phytophthora Preventive Value” in assay [6] was found to be 84.
